Consider six molecules from patent US20160318987A1 (MEDIMMUNE LIMITED, priority 2013, published 2016).

*1 amine or outer side, *2 acyl side, *3 side chain or, on linkers, in order; H or OH if unused. Where a SMILES comes first, the peptide text is derived from it. Side-chain parts run from the residue outwards. [ ]: non-standard residue; d: D form. The star is where a group is joined. X1 = CC(C)(c1ccccc1)[C@H](N[*:1])C(=O)[*:2]; γGlu = O=C(O)[C@H](CCC(=O)[*:2])N[*:1]; Palmitoyl = CCCCCCCCCCCCCCCC(=O)*; αMeF = C[C@](N)(Cc1ccccc1)C(=O)O; Aib = CC(C)(N)C(=O)O

Assay type in all cases: cell-based
Common to all, as to details: n = 2

The target in one assay is T1, hGluc-R (Homo sapiens, UniProt P47871).
T1 construct: expressed in transfected cells
T1 sequence (P47871 26-477): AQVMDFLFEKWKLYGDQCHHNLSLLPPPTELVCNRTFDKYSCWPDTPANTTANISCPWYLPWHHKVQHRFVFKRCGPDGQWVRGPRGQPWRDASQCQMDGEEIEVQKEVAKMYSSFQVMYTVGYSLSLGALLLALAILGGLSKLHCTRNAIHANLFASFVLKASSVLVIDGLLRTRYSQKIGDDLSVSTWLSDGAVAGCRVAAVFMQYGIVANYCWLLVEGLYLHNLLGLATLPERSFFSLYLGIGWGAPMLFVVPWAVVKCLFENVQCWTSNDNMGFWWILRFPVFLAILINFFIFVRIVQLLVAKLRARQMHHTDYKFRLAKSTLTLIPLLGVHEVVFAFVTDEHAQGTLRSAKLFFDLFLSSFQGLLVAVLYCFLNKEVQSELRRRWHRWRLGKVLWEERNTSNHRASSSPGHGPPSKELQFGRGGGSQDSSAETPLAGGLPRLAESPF
Briefly: cAMP functional assay, cells expressing human glucagon receptor (primary assay).

The target of another assay is T2, hGLP-1R (Homo sapiens, UniProt P43220).
T2 construct: expressed in transfected cells
T2 sequence (P43220 24-463): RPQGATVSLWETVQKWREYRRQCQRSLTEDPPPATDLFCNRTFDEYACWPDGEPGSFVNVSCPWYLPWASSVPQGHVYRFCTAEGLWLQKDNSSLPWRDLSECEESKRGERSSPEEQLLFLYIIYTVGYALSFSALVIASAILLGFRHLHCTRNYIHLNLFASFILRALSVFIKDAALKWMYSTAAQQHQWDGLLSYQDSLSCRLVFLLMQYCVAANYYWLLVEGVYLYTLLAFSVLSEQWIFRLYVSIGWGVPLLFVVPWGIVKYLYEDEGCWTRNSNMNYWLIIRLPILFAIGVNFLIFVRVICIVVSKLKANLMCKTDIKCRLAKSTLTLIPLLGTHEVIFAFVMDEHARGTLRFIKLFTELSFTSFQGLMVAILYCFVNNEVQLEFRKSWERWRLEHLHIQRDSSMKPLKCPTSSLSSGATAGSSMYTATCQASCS
Briefly: cAMP functional assay, cells expressing human GLP-1 receptor (primary assay).

The target of the next assay is T3, hGIP-R (Homo sapiens, UniProt P48546).
T3 construct: expressed in transfected cells
T3 sequence (P48546 22-466): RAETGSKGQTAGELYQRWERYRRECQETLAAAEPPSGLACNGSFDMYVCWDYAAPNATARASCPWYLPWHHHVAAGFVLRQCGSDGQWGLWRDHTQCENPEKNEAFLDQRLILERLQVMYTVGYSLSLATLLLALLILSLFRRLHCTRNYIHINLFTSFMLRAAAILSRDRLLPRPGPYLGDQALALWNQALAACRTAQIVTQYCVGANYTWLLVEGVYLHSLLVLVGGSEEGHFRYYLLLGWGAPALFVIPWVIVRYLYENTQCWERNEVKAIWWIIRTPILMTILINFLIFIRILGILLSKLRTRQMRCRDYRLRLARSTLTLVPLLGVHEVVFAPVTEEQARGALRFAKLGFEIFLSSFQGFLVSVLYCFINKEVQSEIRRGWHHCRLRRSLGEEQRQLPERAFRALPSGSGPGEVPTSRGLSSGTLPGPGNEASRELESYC
Nature of the assay: cAMP functional assay, cells expressing human GIP receptor (primary assay).

One may read the EC50 as the concentration needed to bring the measured effect to its halfway point. Lower therefore signals an effect from little substance.

On to `CC[C@H](C)[C@H](NC(=O)[C@H](Cc1ccccc1)NC(=O)[C@H](CCC(=O)O)NC(=O)[C@H](CCCCN)NC(=O)[C@H](C)NC(=O)[C@H](C)NC(=O)[C@H](CCC(N)=O)NC(=O)CNC(=O)[C@H](CCC(=O)O)NC(=O)[C@H](CC(C)C)NC(=O)[C@H](Cc1ccc(O)cc1)NC(=O)[C@H](CO)NC(=O)[C@H](CO)NC(=O)[C@@H](NC(=O)[C@H](CC(=O)O)NC(=O)[C@H](CO)NC(=O)[C@@H](NC(=O)[C@H](Cc1ccccc1)NC(=O)[C@@H](NC(=O)CNC(=O)[C@H](CCC(=O)O)NC(=O)C(C)(C)NC(=O)[C@@H](N)Cc1c[nH]cn1)[C@@H](C)O)[C@@H](C)O)C(C)C)C(=O)N[C@@H](C)C(=O)N[C@@](C)(Cc1c[nH]c2ccccc12)C(=O)N[C@@H](CC(C)C)C(=O)N[C@H](C(=O)N[C@@H](CCCCN)C(=O)NCC(=O)N[C@@H](CCCNC(=N)N)C(N)=O)C(C)C` [SEQ ID NO: 13, H-(Aib)^2-EGT^5 FTSDV^10 SSYLE^15 GQAAK^20 EFIA-(α-MeW)^25 LVKGR^30], for which the figures for the EC50 at hGluc-R, at hGLP-1R and on hGIP-R were 164 nM, 0.026 nM and 164 nM, respectively.

Consider `CC[C@H](C)[C@H](NC(=O)[C@@H](NC(=O)[C@H](CCC(=O)O)NC(=O)[C@H](CCCCN)NC(=O)[C@H](C)NC(=O)[C@H](C)NC(=O)[C@H](CCC(N)=O)NC(=O)CNC(=O)[C@H](CCC(=O)O)NC(=O)[C@H](CC(C)C)NC(=O)[C@@H](NC(=O)[C@H](CO)NC(=O)[C@H](CO)NC(=O)[C@@H](NC(=O)[C@H](CC(=O)O)NC(=O)[C@H](CO)NC(=O)[C@@H](NC(=O)[C@@H](NC(=O)[C@@H](NC(=O)CNC(=O)[C@H](CCC(=O)O)NC(=O)C(C)(C)NC(=O)[C@@H](N)Cc1c[nH]cn1)[C@@H](C)O)C(C)(C)c1ccccc1)[C@@H](C)O)C(C)C)C(C)(C)c1ccccc1)C(C)(C)c1ccccc1)C(=O)N[C@@H](C)C(=O)N[C@H](C(=O)N[C@@H](CC(C)C)C(=O)N[C@H](C(=O)N[C@@H](CCCCN)C(=O)NCC(=O)N[C@@H](CCCNC(=N)N)C(N)=O)C(C)C)C(C)(C)c1ccccc1` [SEQ ID NO: 62, H-(Aib)^2-EGT^5-(β, β-di-Me-Phe)^6-TSDV^10 SS-(β, β-di-Me-Phe)^13-LE^15 GQAAK^20 E-(β, β-di-Me-Phe)^22-IA-(β,β-di-Me-Phe)^25 LVKGR^30] (H-H[Aib]EGT[X1]TSDVSS[X1]LEGQAAKE[X1]IA[X1]LVKGR-NH2), for which the EC50 on hGluc-R, at hGLP-1R and on hGIP-R was 98.9 nM in each case.

Turning to `CC[C@H](C)[C@H](NC(=O)[C@H](Cc1ccccc1)NC(=O)[C@H](CCC(=O)O)NC(=O)[C@H](CCCCN)NC(=O)[C@H](C)NC(=O)[C@H](C)NC(=O)[C@H](CCC(N)=O)NC(=O)CNC(=O)[C@H](CCC(=O)O)NC(=O)[C@H](CC(C)C)NC(=O)[C@](C)(Cc1ccc(O)cc1)NC(=O)[C@H](CO)NC(=O)[C@H](CO)NC(=O)[C@@H](NC(=O)[C@H](CC(=O)O)NC(=O)[C@H](CO)NC(=O)[C@@H](NC(=O)[C@H](Cc1ccccc1)NC(=O)[C@@H](NC(=O)CNC(=O)[C@H](CCC(=O)O)NC(=O)C(C)(C)NC(=O)[C@@H](N)Cc1c[nH]cn1)[C@@H](C)O)[C@@H](C)O)C(C)C)C(=O)N[C@@H](C)C(=O)N[C@@H](Cc1c[nH]c2ccccc12)C(=O)N[C@@H](CC(C)C)C(=O)N[C@H](C(=O)N[C@@H](CCCCN)C(=O)NCC(=O)N[C@@H](CCCNC(=N)N)C(N)=O)C(C)C` [SEQ ID NO: 8, H-(Aib)^2-EGT^5 FTSDV^10 SS-(α-MeY)^13-LE^15 GQAAK^20 EFIAW^25 LVKGR^30], the EC50 at hGluc-R turned out to be 156 nM; on hGLP-1R, 0.0229 nM; at hGIP-R it was 156 nM.

Regarding `CC[C@H](C)[C@H](NC(=O)[C@](C)(Cc1ccccc1)NC(=O)[C@H](CCC(=O)O)NC(=O)[C@H](CCCCN)NC(=O)[C@H](C)NC(=O)[C@H](C)NC(=O)[C@H](CCC(N)=O)NC(=O)CNC(=O)[C@H](CCC(=O)O)NC(=O)[C@H](CC(C)C)NC(=O)[C@](C)(Cc1ccccc1)NC(=O)[C@H](CO)NC(=O)[C@H](CO)NC(=O)[C@@H](NC(=O)[C@H](CC(=O)O)NC(=O)[C@H](CO)NC(=O)[C@@H](NC(=O)[C@](C)(Cc1ccccc1)NC(=O)[C@H](CO)NC(=O)CNC(=O)[C@H](CCC(=O)O)NC(=O)C(C)(C)NC(=O)[C@@H](N)Cc1c[nH]cn1)[C@@H](C)O)C(C)C)C(=O)N[C@@H](C)C(=O)N[C@@](C)(Cc1ccccc1)C(=O)N[C@@H](CC(C)C)C(=O)N[C@H](C(=O)N[C@@H](CCCCN)C(=O)NCC(=O)NCC(=O)N[C@@H](CO)C(=O)N[C@@H](CO)C(=O)NCC(=O)N[C@@H](CO)C(=O)N[C@@H](CO)C(=O)NCC(=O)N[C@@H](CO)C(=O)N[C@@H](CO)C(=O)NCC(=O)N[C@@H](CCCCN)C(N)=O)C(C)C` [SEQ ID NO: 48, H-(Aib)^2-EG-(S)^5-(α-MeF)^6-TSDV^10 SS-(α-MeF)^13-LE^15 GQAAK^20 E-(α-MeF)^22-IA-(α-MeF)^25 LVKG-(G)^30-(SSG)3-K] (H-H[Aib]EGS[αMeF]TSDVSS[αMeF]LEGQAAKE[αMeF]IA[αMeF]LVKGGSSGSSGSSGK-NH2), the values for the EC50 at hGluc-R, at hGLP-1R and at hGIP-R were 82.9 nM, 0.0238 nM and 82.9 nM, respectively.

Consider `CC[C@H](C)[C@H](NC(=O)[C@H](Cc1ccccc1)NC(=O)[C@H](CCC(=O)O)NC(=O)[C@H](CCCCN)NC(=O)[C@H](C)NC(=O)[C@H](C)NC(=O)[C@H](CCC(N)=O)NC(=O)CNC(=O)[C@H](CCC(=O)O)NC(=O)[C@H](CC(C)C)NC(=O)[C@H](Cc1ccc(O)cc1)NC(=O)[C@H](CO)NC(=O)[C@H](CO)NC(=O)[C@@H](NC(=O)[C@H](CC(=O)O)NC(=O)[C@H](CO)NC(=O)[C@@H](NC(=O)[C@H](Cc1ccccc1)NC(=O)[C@@H](NC(=O)CNC(=O)[C@H](CCC(=O)O)NC(=O)C(C)(C)NC(=O)[C@@H](N)Cc1c[nH]cn1)[C@@H](C)O)[C@@H](C)O)C(C)C)C(=O)N[C@@H](C)C(=O)N[C@@H](Cc1c[nH]c2ccccc12)C(=O)N[C@@H](CC(C)C)C(=O)N[C@H](C(=O)N[C@@H](CCCCN)C(=O)NCC(=O)N[C@@](C)(CCCNC(=N)N)C(N)=O)C(C)C` [SEQ ID NO: 24, H-(Aib)^2-EGT^5 FTSDV^10 SSYLE^15 GQAAK^20 EFIAW^25 LVKG-(α-MeR)^30], for which the EC50 on hGluc-R turned out to be 111 nM; on hGLP-1R, 0.021 nM; at hGIP-R it was 111 nM.

`CCCCCCCCCCCCCCCC(=O)N[C@@H](CCC(=O)NCCCC[C@H](NC(=O)CNC(=O)[C@H](CO)NC(=O)[C@H](CO)NC(=O)CNC(=O)[C@H](CO)NC(=O)[C@H](CO)NC(=O)CNC(=O)[C@H](CO)NC(=O)[C@H](CO)NC(=O)CNC(=O)CNC(=O)[C@H](CCCCN)NC(=O)[C@@H](NC(=O)[C@H](CC(C)C)NC(=O)[C@](C)(Cc1ccccc1)NC(=O)[C@H](C)NC(=O)[C@@H](NC(=O)[C@](C)(Cc1ccccc1)NC(=O)[C@H](CCC(=O)O)NC(=O)[C@H](CCCCN)NC(=O)[C@H](C)NC(=O)[C@H](C)NC(=O)[C@H](CCC(N)=O)NC(=O)CNC(=O)[C@H](CCC(=O)O)NC(=O)[C@H](CC(C)C)NC(=O)[C@](C)(Cc1ccccc1)NC(=O)[C@H](CO)NC(=O)[C@H](CO)NC(=O)[C@@H](NC(=O)[C@H](CC(=O)O)NC(=O)[C@H](CO)NC(=O)[C@@H](NC(=O)[C@](C)(Cc1ccccc1)NC(=O)[C@H](CO)NC(=O)CNC(=O)[C@H](CCC(=O)O)NC(=O)C(C)(C)NC(=O)[C@@H](N)Cc1c[nH]cn1)[C@@H](C)O)C(C)C)[C@@H](C)CC)C(C)C)C(N)=O)C(=O)O` [SEQ ID NO: 49, H-(Aib)^2-EG-(S)^5-(α-MeF)^6-TSDV^10 SS-(α-MeF)^13-LE^15 GQAAK^20 E-(α-MeF)^22-IA-(α-MeF)^25 LVKG-(G)^30-(SSG)3-K(Ε-γ-E-Palm)] (H-H[Aib]EGS[αMeF]TSDVSS[αMeF]LEGQAAKE[αMeF]IA[αMeF]LVKGGSSGSSGSSGK([γGlu-Palmitoyl])-NH2): the EC50 on hGluc-R stood at 75.9 nM; at hGLP-1R, 0.00929 nM; on hGIP-R it was 40.9 nM.
